Measurements taken from patent US20250243344A1, “COMPOUND, RUBBER BLEND CONTAINING THE COMPOUND, VEHICLE TIRE COMPRISING THE RUBBER BLEND IN AT LEAST ONE COMPONENT, PROCESS FOR PREPARING THE COMPOUND, AND USE OF THE COMPOUND AS AN ANTI-AGING AGENT AND/OR ANTIOXIDANT” (Continental Reifen Deutschland GmbH, priority 2022, published 2025).

Test: Measurement of oxidation induction time (OIT) by DSC
Conditions: for Time at 180° C. (time to oxidation, oxidation induction time): isothermal 180° C., with liquid polyisoprene LIR-50, O2 atmosphere 50 ml/min, DSC peak
Protocol: The compound of formula III) was investigated under laboratory conditions for its potential protective effect as an aging stabilizer by measurement of the oxidation induction time.
To this end the compounds of formula III) and 6PPD in each case together with a polymer (liquid synthetic polyisoprene (IR), LIR-50, Kuraray, weight average molecular weight distribution Mw=54 000 g/mol, glass transition temperature Tg=−63° C.) were heated at constant temperature (180° C.) until onset of oxidation (start temperature 35° C., heating to 170° C. at a heating rate of 20 K/min (kelvin per minute), heating to 180° C. at a heating rate of 1 K/min; purge gas: nitrogen (N2), volume flow 50 ml/min).
The specimen was kept under isothermal conditions at 180° C. under an N2 atmosphere for 5 minutes and the atmosphere was then switched to an O2 atmosphere (volume flow 50 ml/min).
Oxidation was determined via a peak using DSC (differential scanning calorimetry).
The time in minutes to oxidation was measured.

| Structure (SMILES) | antioxidant effect compared to 6PPD (at 180° C., taking into account measurement accuracy of ± 10 minutes) | Time at 180° C. (time to oxidation, oxidation induction time) [min] |
| --- | --- | --- |
| CC(C)CC(C)Nc1ccc2[nH]c3c(c2c1)CCCC3 (stereo not drawn) [Formula III), 6-(1,3-dimethylbutylamino)-2,3,4,9-tetrahydro-1H-carbazole] | comparable antioxidant effect to 6PPD | 119 ± 10 |
| CC(C)CC(C)Nc1ccc(Nc2ccccc2)cc1 (stereo not drawn) [Formula 6PPD, N-(1,3-dimethylbutyl)-N′-phenyl-p-phenylenediamine, reference compound] |  | 116 ± 10 |
